Test results published in PMC11149917, “Translational and Therapeutic Evaluation of RAS-GTP Inhibition by RMC-6236 in RAS-Driven Cancers” (Cancer Discovery, 2024).
Values joined by “and” are separate entries in the source; they are usually repeats but may differ in a detail not shown here. Equal values may be shown once.

Legend:
[1] = system: Dusp6 mRNA in colon; assay: In vivo PD by Dusp6 qPCR and PK/PD relationship; parameters: species or system mouse; details: for % inhibition of DUSP6 vs control: sheet colon
Protocol: (§1) Tumor-bearing animals were randomized and assigned into groups (n = 1–10/group). The vehicle at 10 mL/kg or RMC-6236 at indicated doses was administered via oral gavage daily, and animals were treated for 28 days, or up to 90 days if PFS was being assessed. […] For single-dose PKPD study, mice were randomized and assigned into groups (n = 3/dose/time point). A single dose of RMC-6236 was administered orally at either 3, 10, or 25 mg/kg. Blood and tissues, including the tumor, brain, colon, ear skin, and muscle, were harvested at indicated time points. Whole blood was collected in K2EDTA Microtainer tubes, incubated for 5 minutes, and snap-frozen in liquid nitrogen. The tissue was either fixed in 10% formalin or snap-frozen in liquid nitrogen for further analysis.
(§2) RNA was extracted from at least 20 mg of tissue using an RNeasy Mini Kit (Qiagen, 74104) and a High-Throughput Tissue grinder following the manufacturer's protocol. Reverse transcription was carried out using High-Capacity cDNA Reverse Transcription Kit (ABI, 4368814) according to the manufacturer's protocol. The cDNA product was used for qPCR analysis using TaqMan Gene-Expression Master Mix (ABI, 4369016). TaqMan primer probes specific to DUSP6 (human—Hs00737962_m1, murine—Mm00518185_m1, FAM-MGB) and 18S (RNA18S1; human—Hs99999901_s1, murine—Mm03928990_g1, FAM-MGB, used as an internal control gene) were used to detect the levels from each sample in duplicates using a 10 µL final reaction volume in a 384-well clear optical reaction plate. For qPCR, Ct values of DUSP6 and 18S were obtained for analysis. DUSP6 Ct value was normalized to 18S, and then the mean relative mRNA expression levels of each group were normalized to the vehicle control group. Values were plotted as relative change in mRNA expression compared with vehicle. Means ± SEM were shown.
(§3) Concentrations of RMC-6236 in tumor or normal tissues and percentage of DUSP6 inhibition as compared with the vehicle control from individual animals were collected and analyzed post a single dose of RMC-6236 ranging from 0.3 to 100 mg/kg (Supplementary Table S6). A 3-parameter sigmoidal exposure–response model was fitted to the data in GraphPad Prism to derive EC50 and EC90 values.

[2] = system: Dusp6 mRNA in ear skin; assay: In vivo PD by Dusp6 qPCR and PK/PD relationship; parameters: species or system mouse; details: for % inhibition of DUSP6 vs control: sheet Ear Skin
Protocol: as §1, §2, §3

For `CCn1c(-c2cc(N3CCN(C)CC3)cnc2[C@H](C)OC)c2c3cc(ccc31)-c1csc(n1)C[C@H](NC(=O)[C@H]1C[C@@H]1C)C(=O)N1CCC[C@H](N1)C(=O)OCC(C)(C)C2` [RMC-6236], which EC50 ([1]; Mus musculus, colon of tumor-bearing BALB/c nude mice, read-out: EC50, inhibition of Dusp6 expression vs RMC-6236 concentration (PK/PD relationship)) is on record?
Its EC50 is 1.71 µM.

What about the EC90 ([1]; Mus musculus, colon of tumor-bearing BALB/c nude mice, read-out: EC90, inhibition of Dusp6 expression vs RMC-6236 concentration (PK/PD relationship)) of the same compound?
The EC90 was 15.4 µM.

What about the “shift in EC50 and EC90 vs tumor cells of Capan-2, NCI-H441, and HPAC models” value ([1]; colon from tumor-bearing animals) of the same compound?
Its value is no less than 10 fold.

What about the “% inhibition of DUSP6 vs control” value ([1]; Capan-2, Capan-2 #3_PHA 2023, 3 mg/kg, 2h) of the same compound?
Its value is 37.2913% and 60.5871% and 58.0501%.

And the “% inhibition of DUSP6 vs control” value ([1]; Capan-2, Capan-2 #3_PHA 2023, 3 mg/kg, 4h)?
The value was 61.1298% and 32.7904% and 59.3384%.

What about the “% inhibition of DUSP6 vs control” value ([1]; Capan-2, Capan-2 #3_PHA 2023, 3 mg/kg, 8h) of the same compound?
Its value is 84.3228% and 73.9972% and 54.4116%.

What about the “% inhibition of DUSP6 vs control” value ([1]; Capan-2, Capan-2 #3_PHA 2023, 3 mg/kg, 24h) of the same compound?
Its value is 0%.

What about the “% inhibition of DUSP6 vs control” value ([1]; Capan-2, Capan-2 #3_PHA 2023, 10 mg/kg, 2h) of the same compound?
The value was 57.1687% and 58.484% and 80.9648%.

And the “% inhibition of DUSP6 vs control” value ([1]; Capan-2, Capan-2 #3_PHA 2023, 10 mg/kg, 4h)?
Its value is 72.1309% and 81.8034% and 73.7254%.

What about the “% inhibition of DUSP6 vs control” value ([1]; Capan-2, Capan-2 #3_PHA 2023, 10 mg/kg, 8h) of the same compound?
The value was 81.8664% and 78.1343% and 82.9039%.

What about the “% inhibition of DUSP6 vs control” value ([1]; Capan-2, Capan-2 #3_PHA 2023, 10 mg/kg, 24h) of the same compound?
The value was 0% and 4.621%.

And the “% inhibition of DUSP6 vs control” value ([1]; Capan-2, Capan-2 #3_PHA 2023, 25 mg/kg, 2h)?
The value was 88.2825% and 80.9648% and 65.0894%.

And the “% inhibition of DUSP6 vs control” value ([1]; Capan-2, Capan-2 #3_PHA 2023, 25 mg/kg, 4h)?
Its value is 67.0868% and 83.3714% and 61.2642%.

What about the “% inhibition of DUSP6 vs control” value ([1]; Capan-2, Capan-2 #3_PHA 2023, 25 mg/kg, 8h) of the same compound?
Its value is 50.4575% and 35.7513% and 63.8583%.

What about the “% inhibition of DUSP6 vs control” value ([1]; Capan-2, Capan-2 #3_PHA 2023, 25 mg/kg, 24h) of the same compound?
Its value is 0%.

And the “% inhibition of DUSP6 vs control” value ([1]; Capan-2, Capan-2 #3_PHA 2023, 25 mg/kg, 48h)?
Its value is 0%.

What about the “% inhibition of DUSP6 vs control” value ([1]; Capan-2, Capan-2 #3_PHA 2023, 50 mg/kg, 4h) of the same compound?
The value was 52.3107% and 83.9934% and 66.044%.

And the “% inhibition of DUSP6 vs control” value ([1]; Capan-2, Capan-2 #3_PHA 2023, 50 mg/kg, 24h)?
The value was 0%.

And the “% inhibition of DUSP6 vs control” value ([1]; Capan-2, Capan-2 #3_PHA 2023, 50 mg/kg, 48h)?
The value was 0%.

What about the “% inhibition of DUSP6 vs control” value ([1]; Capan-2, Capan-2 #3_PHA 2023, 100 mg/kg, 2h) of the same compound?
The value was 67.4272% and 86.2096% and 68.6456%.

And the “% inhibition of DUSP6 vs control” value ([1]; Capan-2, Capan-2 #3_PHA 2023, 100 mg/kg, 4h)?
The value was 65.0894% and 44.0683% and 74.5323%.

What about the “% inhibition of DUSP6 vs control” value ([1]; Capan-2, Capan-2 #3_PHA 2023, 100 mg/kg, 8h) of the same compound?
The value was 70.4396% and 92.2693% and 83.0807%.

What about the “% inhibition of DUSP6 vs control” value ([1]; Capan-2, Capan-2 #3_PHA 2023, 100 mg/kg, 24h) of the same compound?
The value was 0%.

What about the “% inhibition of DUSP6 vs control” value ([1]; Capan-2, Capan-2 #3_PHA 2023, 100 mg/kg, 48h) of the same compound?
The value was 0%.

And the “% inhibition of DUSP6 vs control” value ([1]; KP-4, KP-4 #5, 25 mg/kg, 4h)?
Its value is 76.482% and 79.4553% and 90.4818%.

And the “% inhibition of DUSP6 vs control” value ([1]; KP-4, KP-4 #5, 25 mg/kg, 8h)?
The value was 84.9604% and 85.3209% and 74.5306%.

What about the “% inhibition of DUSP6 vs control” value ([1]; KP-4, KP-4 #5, 25 mg/kg, 24h) of the same compound?
Its value is 0%.

And the “% inhibition of DUSP6 vs control” value ([1]; KP-4, KP-4 #5, 25 mg/kg, 48h)?
The value was 0%.

And the EC50 ([2]; Mus musculus, read-out: EC50, inhibition of Dusp6 expression vs RMC-6236 concentration (PK/PD relationship))?
Its EC50 is 1.16 µM.

What about the EC90 ([2]; Mus musculus, read-out: EC90, inhibition of Dusp6 expression vs RMC-6236 concentration (PK/PD relationship)) of the same compound?
The EC90 was 10.3 µM.

And the “% inhibition of DUSP6 vs control” value ([2]; model Capan-2, study Capan-2 #3_PHA 2023, 10 mg/kg, 2h)?
Its value is 42.9575% and 52.5293% and 38.4381%.

What about the “% inhibition of DUSP6 vs control” value ([2]; model Capan-2, study Capan-2 #3_PHA 2023, 10 mg/kg, 4h) of the same compound?
The value was 58.9598% and 71.2804% and 61.0388%.

And the “% inhibition of DUSP6 vs control” value ([2]; model Capan-2, study Capan-2 #3_PHA 2023, 10 mg/kg, 24h)?
The value was 3.733% and 0%.

And the “% inhibition of DUSP6 vs control” value ([2]; model Capan-2, study Capan-2 #3_PHA 2023, 10 mg/kg, 48h)?
The value was 6.69% and 0%.

And the “% inhibition of DUSP6 vs control” value ([2]; model Capan-2, study Capan-2 #3_PHA 2023, 25 mg/kg, 2h)?
The value was 80.2475% and 68.4632% and 48.9455%.

And the “% inhibition of DUSP6 vs control” value ([2]; model Capan-2, study Capan-2 #3_PHA 2023, 25 mg/kg, 4h)?
Its value is 91.4616% and 90.6888% and 92.061%.

And the “% inhibition of DUSP6 vs control” value ([2]; model Capan-2, study Capan-2 #3_PHA 2023, 25 mg/kg, 8h)?
The value was 84.5561% and 76.0166% and 82.9823%.

What about the “% inhibition of DUSP6 vs control” value ([2]; model Capan-2, study Capan-2 #3_PHA 2023, 25 mg/kg, 24h) of the same compound?
The value was 0%.

And the “% inhibition of DUSP6 vs control” value ([2]; model Capan-2, study Capan-2 #3_PHA 2023, 25 mg/kg, 48h)?
The value was 0%.

And the “% inhibition of DUSP6 vs control” value ([2]; model Capan-2, study Capan-2 #3_PHA 2023, 50 mg/kg, 2h)?
Its value is 78.2346% and 81.5063% and 55.09%.

What about the “% inhibition of DUSP6 vs control” value ([2]; model Capan-2, study Capan-2 #3_PHA 2023, 50 mg/kg, 4h) of the same compound?
The value was 93.2074% and 87.1476% and 69.7478%.

What about the “% inhibition of DUSP6 vs control” value ([2]; model Capan-2, study Capan-2 #3_PHA 2023, 50 mg/kg, 8h) of the same compound?
The value was 88.8886% and 90.1237% and 86.7863%.

And the “% inhibition of DUSP6 vs control” value ([2]; model Capan-2, study Capan-2 #3_PHA 2023, 100 mg/kg, 2h)?
Its value is 57.6595% and 75.6818% and 80.5868%.

And the “% inhibition of DUSP6 vs control” value ([2]; model Capan-2, study Capan-2 #3_PHA 2023, 100 mg/kg, 4h)?
The value was 89.3781% and 78.2346% and 89.488%.

What about the “% inhibition of DUSP6 vs control” value ([2]; model Capan-2, study Capan-2 #3_PHA 2023, 100 mg/kg, 8h) of the same compound?
The value was 93.8569% and 95.7308% and 92.061%.

What about the “% inhibition of DUSP6 vs control” value ([2]; model Capan-2, study Capan-2 #3_PHA 2023, 100 mg/kg, 24h) of the same compound?
Its value is 30.7393% and 61.1736%.

What about the “% inhibition of DUSP6 vs control” value ([2]; model KP-4, study KP-4 #5, 25 mg/kg, 4h) of the same compound?
The value was 90.5424% and 91.5353% and 93.5179%.

And the “% inhibition of DUSP6 vs control” value ([2]; model KP-4, study KP-4 #5, 25 mg/kg, 8h)?
Its value is 80.3499% and 66.4912% and 89.8987%.

What about the “shift in EC50 and EC90 vs tumor cells of Capan-2, NCI-H441, and HPAC models” value ([2]; skin from tumor-bearing animals) of the same compound?
Its value is no less than 10 fold.
